One assay deals with ERα/PI3K interaction. The assay is described as follows: In situ Proximity Ligation Assay (PLA) detection of ERα/PI3K interaction in MCF-7 cells. In kind it is cell-based, human. To be noted: upon treatment. The source says:
(§1) Castoria et al. reported that estrogen rapidly triggers the interaction of ERα with Src and PI3K in MCF-7 cells, forming a complex involved in estrogen nongenomic-induced cell proliferation. […] Therefore the physiological relevance of this signaling pathway remains questionable. To date, immuno fluorescence analysis of the complex has been impeded by the fact that only a small population of ERα interacts with Src and PI3K. To circumvent this problem, we used a newly developed technique, the Proximity Ligation Assay. […] We investigated the ERα/PI3K interaction in the human breast tumor cell line MCF-7, using a rabbit anti-ERα together with a mouse anti-p85 antibody. The ERα/Src interaction was detected using the same anti-ERα together with a mouse anti-Src antibody. […] No dots were detected using only one antibody as confirmed by counting dots per 100 cells (FIG. 1, around 50 dots/cell versus less than 5). Importantly, the number of red dots increased after 5 min of estrogenic treatment then decreased after 15 min. This confirmed that upon estrogenic treatment, the formation of this complex is rapid and transitory (FIG. 2:)). […] They were detected exclusively in the […] of MCF-7 cells, as expected. […]

The test system of the next assay is ERα/Src interaction. The assay is described as follows: In situ Proximity Ligation Assay (PLA) detection of ERα/Src interaction in MCF-7 cells. In kind it is cell-based, human. The settings on record: upon treatment.
Source text: as §1

The results in this text go back to US20150212087A1, “Detection of the ERalpha/Src/PI3K Complex as Predictive Marker in Breast Cancer” (Centre Leon Berard, priority 2012, published 2015).

As to `CC/C(=C(\c1ccccc1)c1ccc(OCCN(C)C)cc1)c1ccccc1` [tamoxifen], the “ERα/PI3K interaction (red dots) by PLA” value with ERα/PI3K interaction is “decrease”. The “ERα/Src interaction (red dots) by PLA” value in the assay with ERα/Src interaction is “decrease”.
For the compound `Cc1ccc(-c2nn(C(C)(C)C)c3ncnc(N)c23)cc1` [PP1], in the assay with ERα/PI3K interaction, the “ERα/PI3K interaction (red dots) by PLA” value is reported as “significant decrease of red dots”. Also, the “ERα/Src interaction (red dots) by PLA” value in the assay with ERα/Src interaction is “significant decrease of red dots”.
